Results taken from patent US4434159A, “Pharmaceutical composition for intrarectal administration, and suppository prepared therefrom” (Teijin Limited, priority 1980, dated 1984).

Legend:
[1] = test system: mucous membrane of the eyes (cornea, iris, conjunctiva); assay: Draize eye irritation test of absorption aids in rabbits
Method: Nothing was applied to the other eye. Thus, irritation of the absorption aid to the mucous membrane of the eyes were examined, and scores were calculated in accordance with the Draize's eye irritation evaluating method [Association of Foods, Drugs and Cosmetics" (1957)].

serum calcium level [2] = assay: Effect of the amount of the absorption aid on the decrease of serum calcium level (calcitonin suppositories, rats); format: in vivo; details: intrarectal, SD male rats, one hour
Method: (§1) (a) About 14 g of each of the absorption aids shown in Table 1 was added to 186 g of cacao butter, and they were well mixed by a grinder. Salmon caltintonin or [Asu^1,7 ]-eel calcitonin was added gradually and mixed to form a homogeneous composition. The composition was slightly heated to make it flowable, and about 80 mg of it was cast into a suppository container made for rats, and allowed to solidify by cooling to obtain a rat suppository having a diameter of about 3 mm and a length of about 6 mm. The suppository contained 0.7 MRC units of calcitonin.
(§2) The suppository was administered to the rectum of each of […] male rats (body weight about 200 g) and the concentration of calcium in the serum was measured 1, 2, 3, and 5 hours later to examine the absorbabillity of calcitonin from the rectum. The calcium level in the serum was measured by using a calcium level measuring kit of Yatoron Co., and five rats were used for each blood withdrawal. The results are shown in Table 1 as the decrease (%) of the serum calcium level from that before administration of the calcitonin-containing suppository.
(b) Suppositories containing 0.7 MRC unit of [Aus^1.7 ]-eel calcitonin per 80 mg were prepared in the same way as in (a) above by including each of the absorption aids shown in Table 2 in the amounts indicated. Each of the suppositories was intrarectally administered to SD male rats in the same way as in (a) above, and the decrease (%) of the serum calcium level was measured one hour after the administration.

serum calcium level [3] = assay: Decrease of the serum calcium level after administration of calcitonin suppositories to rats; format: in vivo; details: 0.7 u/kg intramuscularly administered
Method: as §1, §2
Furthermore, [Aus^1,7 ]-eel calcitonin was intramuscularly injected to rats, and the decrease in serum calcium level was also examined.

[4] = 2.4 w/v % soln, 1 hours after application
[5] = 2.4 w/v % soln, 3 hours after application
[6] = 2.4 w/v % soln, 6 hours after application
[7] = 2.4 w/v % soln, 24 hours after application
[8] = 2.4 w/v % soln, 48 hours after application
[9] = 2.4 w/v % soln, 72 hours after application
[10] = 2.4 w/v % soln, 96 hours after application
[11] = 2.4 w/v % soln, 168 hours after application
[12] = aqueous solution applied dropwise to rabbit eye, Draize evaluation
[13] = absorption aid 0.8% of suppository with 0.7 MRC unit [Aus^1.7]-eel calcitonin per 80 mg
[14] = absorption aid 2.4% of suppository with 0.7 MRC unit [Aus^1.7]-eel calcitonin per 80 mg
[15] = absorption aid 15.0% of suppository with 0.7 MRC unit [Aus^1.7]-eel calcitonin per 80 mg
[16] = absorption aid 7.0% of suppository with 0.7 MRC unit [Aus^1.7]-eel calcitonin per 80 mg
[17] = 0.1 w/v % soln, 1 hours after application
[18] = 0.1 w/v % soln, 3 hours after application
[19] = 0.1 w/v % soln, 6 hours after application
[20] = 0.1 w/v % soln, 24 hours after application
[21] = 0.1 w/v % soln, 48 hours after application
[22] = 0.1 w/v % soln, 72 hours after application
[23] = 0.1 w/v % soln, 96 hours after application
[24] = 0.1 w/v % soln, 168 hours after application

N[C@@H](CCC(=O)O)C(=O)O [L-Glutamic acid]
Primary irritation scores on the eyes: Conjunctiva [1, 4]: 3.3
Primary irritation scores on the eyes: Cornea [1, 4]: 0
Primary irritation scores on the eyes: Iris [1, 4]: 0
Primary irritation scores on the eyes: Total [1, 4]: 3.3
Primary irritation scores on the eyes: Conjunctiva [1, 5]: 2.0
Primary irritation scores on the eyes: Cornea [1, 5]: 0
Primary irritation scores on the eyes: Iris [1, 5]: 0
Primary irritation scores on the eyes: Total [1, 5]: 2.0
Primary irritation scores on the eyes: Conjunctiva [1, 6]: 2.0
Primary irritation scores on the eyes: Cornea [1, 6]: 0
Primary irritation scores on the eyes: Iris [1, 6]: 0
Primary irritation scores on the eyes: Total [1, 6]: 2.0
Primary irritation scores on the eyes: Conjunctiva [1, 7]: 0
Primary irritation scores on the eyes: Cornea [1, 7]: 0
Primary irritation scores on the eyes: Iris [1, 7]: 0
Primary irritation scores on the eyes: Total [1, 7]: 0
Primary irritation scores on the eyes: Conjunctiva [1, 8]: 0
Primary irritation scores on the eyes: Cornea [1, 8]: 0
Primary irritation scores on the eyes: Iris [1, 8]: 0
Primary irritation scores on the eyes: Total [1, 8]: 0
Primary irritation scores on the eyes: Conjunctiva [1, 9]: 0
Primary irritation scores on the eyes: Cornea [1, 9]: 0
Primary irritation scores on the eyes: Iris [1, 9]: 0
Primary irritation scores on the eyes: Total [1, 9]: 0
Primary irritation scores on the eyes: Conjunctiva [1, 10]: 0
Primary irritation scores on the eyes: Cornea [1, 10]: 0
Primary irritation scores on the eyes: Iris [1, 10]: 0
Primary irritation scores on the eyes: Total [1, 10]: 0
Primary irritation scores on the eyes: Conjunctiva [1, 11]: 0
Primary irritation scores on the eyes: Cornea [1, 11]: 0
Primary irritation scores on the eyes: Iris [1, 11]: 0
Primary irritation scores on the eyes: Total [1, 11]: 0
irritation to the mucous membrane of the eyes (in words) [1, 12]: almost no irritation
Decrease of the serum calcium level (%) (serum calcium level [2]; [13]): 11.5%
Decrease of the serum calcium level (%) (serum calcium level [2]; [14]): 17.2%
Decrease of the serum calcium level (%) (serum calcium level [2]; [15]): 28.1%

O=C1CCC(C(=O)O)N1 (racemic) [DL-Pyroglutamic acid]
Primary irritation scores on the eyes: Cornea ([1]; rabbit, in vivo): 0
Primary irritation scores on the eyes: Iris ([1]; rabbit, in vivo): 0
irritation to the mucous membrane of the eyes (in words) ([1]; rabbit, in vivo): almost no irritation
Decrease of the serum calcium level (%) (serum calcium level [2]; [13]): 15.2%
Decrease of the serum calcium level (%) (serum calcium level [2]; [14]): 20.1%
Decrease of the serum calcium level (%) (serum calcium level [2]; [16]): 31.0%

O=C1O[C@H]([C@@H](O)CO)C(O)=C1O [Ascorbic acid]
Primary irritation scores on the eyes: Conjunctiva [1, 4]: 3.3
Primary irritation scores on the eyes: Cornea [1, 4]: 0
Primary irritation scores on the eyes: Iris [1, 4]: 0
Primary irritation scores on the eyes: Total [1, 4]: 3.3
Primary irritation scores on the eyes: Conjunctiva [1, 5]: 1.3
Primary irritation scores on the eyes: Cornea [1, 5]: 0
Primary irritation scores on the eyes: Iris [1, 5]: 0
Primary irritation scores on the eyes: Total [1, 5]: 1.3
Primary irritation scores on the eyes: Conjunctiva [1, 6]: 1.3
Primary irritation scores on the eyes: Cornea [1, 6]: 0
Primary irritation scores on the eyes: Iris [1, 6]: 0
Primary irritation scores on the eyes: Total [1, 6]: 1.3
Primary irritation scores on the eyes: Conjunctiva [1, 7]: 0
Primary irritation scores on the eyes: Cornea [1, 7]: 0
Primary irritation scores on the eyes: Iris [1, 7]: 0
Primary irritation scores on the eyes: Total [1, 7]: 0
Primary irritation scores on the eyes: Conjunctiva [1, 8]: 0
Primary irritation scores on the eyes: Cornea [1, 8]: 0
Primary irritation scores on the eyes: Iris [1, 8]: 0
Primary irritation scores on the eyes: Total [1, 8]: 0
Primary irritation scores on the eyes: Conjunctiva [1, 9]: 0
Primary irritation scores on the eyes: Cornea [1, 9]: 0
Primary irritation scores on the eyes: Iris [1, 9]: 0
Primary irritation scores on the eyes: Total [1, 9]: 0
Primary irritation scores on the eyes: Conjunctiva [1, 10]: 0
Primary irritation scores on the eyes: Cornea [1, 10]: 0
Primary irritation scores on the eyes: Iris [1, 10]: 0
Primary irritation scores on the eyes: Total [1, 10]: 0
Primary irritation scores on the eyes: Conjunctiva [1, 11]: 0
Primary irritation scores on the eyes: Cornea [1, 11]: 0
Primary irritation scores on the eyes: Iris [1, 11]: 0
Primary irritation scores on the eyes: Total [1, 11]: 0
irritation to the mucous membrane of the eyes (in words) [1, 12]: almost no irritation
Decrease of the serum calcium level (%) (serum calcium level [2]; [13]): 16.0%
Decrease of the serum calcium level (%) (serum calcium level [2]; [14]): 22.3%
Decrease of the serum calcium level (%) (serum calcium level [2]; [16]): 33.1%
Decrease of the serum calcium level (%) (serum calcium level [2]; [15]): 35.1%

[Asu^1,7 ]-eel calcitonin [[Asu^1.7]eel calcitonin]
Decrease (%) in serum calcium level from that before administration (serum calcium level [3]; after 1 hour): 26.0%
Decrease (%) in serum calcium level from that before administration (serum calcium level [3]; after 2 hours): 30.5%
Decrease (%) in serum calcium level from that before administration (serum calcium level [3]; after 3 hours): 17.5%
Decrease (%) in serum calcium level from that before administration (serum calcium level [3]; after 5 hours): 2.1%

CCCCCCCCCCCCOS(=O)(=O)[O-].[Na+] [Sodium Laurylsulfate, reference compound]
Primary irritation scores on the eyes: Conjunctiva [1, 17]: 4.0
Primary irritation scores on the eyes: Cornea [1, 17]: 0
Primary irritation scores on the eyes: Iris [1, 17]: 0
Primary irritation scores on the eyes: Total [1, 17]: 4.0
Primary irritation scores on the eyes: Conjunctiva [1, 18]: 4.0
Primary irritation scores on the eyes: Cornea [1, 18]: 0
Primary irritation scores on the eyes: Iris [1, 18]: 0
Primary irritation scores on the eyes: Total [1, 18]: 4.0
Primary irritation scores on the eyes: Conjunctiva [1, 19]: 0
Primary irritation scores on the eyes: Cornea [1, 19]: 0
Primary irritation scores on the eyes: Iris [1, 19]: 0
Primary irritation scores on the eyes: Total [1, 19]: 0
Primary irritation scores on the eyes: Conjunctiva [1, 20]: 0
Primary irritation scores on the eyes: Cornea [1, 20]: 0
Primary irritation scores on the eyes: Iris [1, 20]: 0
Primary irritation scores on the eyes: Total [1, 20]: 0
Primary irritation scores on the eyes: Conjunctiva [1, 21]: 0
Primary irritation scores on the eyes: Cornea [1, 21]: 0
Primary irritation scores on the eyes: Iris [1, 21]: 0
Primary irritation scores on the eyes: Total [1, 21]: 0
Primary irritation scores on the eyes: Conjunctiva [1, 22]: 0
Primary irritation scores on the eyes: Cornea [1, 22]: 0
Primary irritation scores on the eyes: Iris [1, 22]: 0
Primary irritation scores on the eyes: Total [1, 22]: 0
Primary irritation scores on the eyes: Conjunctiva [1, 23]: 0
Primary irritation scores on the eyes: Cornea [1, 23]: 0
Primary irritation scores on the eyes: Iris [1, 23]: 0
Primary irritation scores on the eyes: Total [1, 23]: 0
Primary irritation scores on the eyes: Conjunctiva [1, 24]: 0
Primary irritation scores on the eyes: Cornea [1, 24]: 0
Primary irritation scores on the eyes: Iris [1, 24]: 0
Primary irritation scores on the eyes: Total [1, 24]: 0
Primary irritation scores on the eyes: Conjunctiva [1, 4]: 13.3
Primary irritation scores on the eyes: Cornea [1, 4]: 0
Primary irritation scores on the eyes: Iris [1, 4]: 5.0
Primary irritation scores on the eyes: Total [1, 4]: 18.3
Primary irritation scores on the eyes: Conjunctiva [1, 5]: 12.7
Primary irritation scores on the eyes: Cornea [1, 5]: 0
Primary irritation scores on the eyes: Iris [1, 5]: 0
Primary irritation scores on the eyes: Total [1, 5]: 12.7
Primary irritation scores on the eyes: Conjunctiva [1, 6]: 11.3
Primary irritation scores on the eyes: Cornea [1, 6]: 0
Primary irritation scores on the eyes: Iris [1, 6]: 0
Primary irritation scores on the eyes: Total [1, 6]: 11.3
Primary irritation scores on the eyes: Conjunctiva [1, 7]: 8.0
Primary irritation scores on the eyes: Cornea [1, 7]: 0
Primary irritation scores on the eyes: Iris [1, 7]: 0
Primary irritation scores on the eyes: Total [1, 7]: 8.0
Primary irritation scores on the eyes: Conjunctiva [1, 8]: 4.0
Primary irritation scores on the eyes: Cornea [1, 8]: 0
Primary irritation scores on the eyes: Iris [1, 8]: 0
Primary irritation scores on the eyes: Total [1, 8]: 4.0
Primary irritation scores on the eyes: Conjunctiva [1, 9]: 2.7
Primary irritation scores on the eyes: Cornea [1, 9]: 0
Primary irritation scores on the eyes: Iris [1, 9]: 0
Primary irritation scores on the eyes: Total [1, 9]: 2.7
Primary irritation scores on the eyes: Conjunctiva [1, 10]: 2.0
Primary irritation scores on the eyes: Cornea [1, 10]: 0
Primary irritation scores on the eyes: Iris [1, 10]: 0
Primary irritation scores on the eyes: Total [1, 10]: 2.0
Primary irritation scores on the eyes: Conjunctiva [1, 11]: 0.7
Primary irritation scores on the eyes: Cornea [1, 11]: 0
Primary irritation scores on the eyes: Iris [1, 11]: 0
Primary irritation scores on the eyes: Total [1, 11]: 0.7
irritation to the mucous membrane of the eyes (in words) [1, 12]: fairly strong irritation

CC(=O)Oc1ccccc1C(=O)O [Acetylsalicylic acid, reference compound]
Primary irritation scores on the eyes: Cornea ([1]; rabbit, in vivo): 0
Primary irritation scores on the eyes: Iris ([1]; rabbit, in vivo): 0
irritation to the mucous membrane of the eyes (in words) ([1]; rabbit, in vivo): almost no irritation

O=C([O-])c1ccccc1O.[Na+] [Sodium salicylate, reference compound]
Decrease of the serum calcium level (%) (serum calcium level [2]; [13]): 11.4%
Decrease of the serum calcium level (%) (serum calcium level [2]; [14]): 20.3%
Decrease of the serum calcium level (%) (serum calcium level [2]; [16]): 29.6%
